In US6500472B2, “Folic acid and/or vitamin B12-lactoferrin complex” (Snow Brand Milk Products Co., Ltd., priority 2000, dated 2002):
Where two headings read alike, the source gives them in different places.

Experiments:
[1] = biological target: T1, lactoferrin (Bos taurus, UniProt P24627); assay: Folic acid held by lactoferrin (UF membrane separation, free folic acid by optical density at 362 nm); assay type: binding; conditions: for Amount of folic acid held per 1 μmol of lactoferrin: 50 mM sodium bicarbonate pH 8.5
T1 sequence (P24627 20-708): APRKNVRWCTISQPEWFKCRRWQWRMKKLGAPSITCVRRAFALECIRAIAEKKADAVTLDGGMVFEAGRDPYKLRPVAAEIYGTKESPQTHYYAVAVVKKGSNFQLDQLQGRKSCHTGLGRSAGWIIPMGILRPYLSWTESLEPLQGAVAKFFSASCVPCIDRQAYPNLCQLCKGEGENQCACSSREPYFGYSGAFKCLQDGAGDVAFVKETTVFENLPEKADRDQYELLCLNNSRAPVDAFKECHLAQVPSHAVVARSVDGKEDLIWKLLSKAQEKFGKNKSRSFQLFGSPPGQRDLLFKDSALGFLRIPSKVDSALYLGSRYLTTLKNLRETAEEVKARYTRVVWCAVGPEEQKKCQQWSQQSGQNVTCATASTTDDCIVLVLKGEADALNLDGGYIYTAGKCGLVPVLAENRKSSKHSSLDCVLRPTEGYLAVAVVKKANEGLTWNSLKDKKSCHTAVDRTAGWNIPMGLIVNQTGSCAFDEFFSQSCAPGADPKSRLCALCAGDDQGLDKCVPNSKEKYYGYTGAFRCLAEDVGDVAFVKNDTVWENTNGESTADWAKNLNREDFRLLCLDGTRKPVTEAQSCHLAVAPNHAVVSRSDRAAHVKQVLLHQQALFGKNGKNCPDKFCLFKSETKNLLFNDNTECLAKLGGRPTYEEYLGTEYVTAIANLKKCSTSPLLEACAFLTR
Protocol: A lactoferrin solution at a concentration of 1 μmol/20 ml was prepared by dissolving lactoferrin in a 50 mM sodium bicarbonate aqueous solution (pH 8.5), and folic acid was added at a concentration of 10 to 300 μmol/20 ml. The resultant admixture was treated with an ultrafiltration (UF) membrane (cut-off molecular weight: 5 kDa; a product of Millipore Corp.) to separate it into the permeate and the retentate. Further, a 50 mM sodium bicarbonate aqueous solution (pH 8.5) was added to the remaining retentate to recover the permeate. This process was repeated four times and the resulting permeate was diluted […] to recover the whole free folic acid into the permeate. The amount of binding-type folic acid remaining in the retentate was calculated from the amount of free folic acid contained in the recovered permeate obtained by measuring optical density at 362 nm. Upon measuring the optical density for folic acid, it was confirmed that no protein was eluted into the permeate and no inhibiting substance derived from proteins existed. Further, a folic acid aqueous solution without protein was simultaneously subjected to the UF membrane treatment to prepare a control sample. These operations and measurements were performed in the dark to prevent decomposition of folic acid. No decomposition of folic acid during the measurement was confirmed by the optical density measurement.

[2] = Light radiation test (40-watt fluorescent lamp), folic acid measured by method using microorganisms; assay type: physicochemical; conditions: phosphate buffer pH 6.5
Protocol: A light radiation test was carried out with a folic acid-lactoferrin complex. Namely, to a 1 μmol lactoferrin solution which was prepared by dissolving lactoferrin into 50 ml of a 50 mM sodium bicarbonate aqueous solution (pH 8.5) was added folic acid to make a 100 μmol solution. The resultant admixture was subjected to dialysis using a dialysis membrane (cut-off molecular weight: 10 kDa) against a 5 mM phosphate buffer solution (pH 6.5) and then to freeze-drying to obtain a folic acid-lactoferrin complex. The resulting folic acid-lactoferrin complex powder was dissolved in a 50 mM phosphoric acid buffer solution (pH 6.5) at a concentration of 3 mg/100 ml. Separately, folic acid (a product of Sigma) was dissolved in a 50 mM phosphoric acid buffer solution (pH 6.5) at a concentration of 0.8 mg/100 ml. Each sample solution (5 ml) was dispensed into a transparent polyethylene container, water was added to a depth of 5 mm, and the solution was subjected to radiation with a 40-watt fluorescent lump from a height of 30 mm, after which the amount of folic acid was measured by a method using microorganisms. Namely, the pH of the folic acid-lactoferrin complex sample was adjusted to 2.0, 2 mg of pepsin (a product of Sigma) per 1 ml sample were added, and proteolysis was carried out at 37 C for 120 minutes, after which the pH was further adjusted to 7.5, 2 mg of trypsin (a product of Sigma) per 1 ml sample were added, and proteolysis was carried out at 37 C for 120 minutes. After deaeration, the reaction solution was heated for 5 minutes and centrifuged at 15,000 G to recover the supernatant. The amount of folic acid was measured by a method using microorganisms (Davis, R. E., D. J. Nicol & A. Kelly, J. Clin. Path., vol. 23, pp. 47-53, 1970). Further, a calibration curve was obtained by using folic acid (a product of Sigma). These operations and measurements were carried out in the dark except for the fluorescent radiation.

[3] = Turbidity at 660 nm / solubility in deionized water; assay type: physicochemical
Protocol: Folic acid and the folic acid-lactoferrin complex used in Test Example 2 were each added to deionized water at a folic acid concentration of 0.1 to 10 μmol/10 ml to measure turbidity at 660 nm.

[4] = Stability of folic acid in citric acid buffer pH 2.5 after sterilization and storage at 37 C; assay type: physicochemical
Protocol: Folic acid and the folic acid-lactoferrin complex used in Test Example 2 were each added to a 10 mM citric acid buffer solution (pH 2.5) at a folic acid concentration of 0.25 μmol/10 ml. Next, 50 ml portions of the solutions were dispensed in brown bottles, sterilized at 90 C for 30 minutes and then stored at 37 C. The amount of folic acid was measured in the same manner as in Test Example 2.

[5] = cited from earlier work
[6] = biological target: T1, lactoferrin; assay: Vitamin B12 held by lactoferrin (UF membrane separation, method using microorganisms); assay type: binding; conditions: for Amount of vitamin B12 held per 1 μmol of lactoferrin: imidazole buffer pH 6.5
Protocol: The resultant solution was treated with a UF membrane (cut-off molecular weight: 5 kDa; a product of Millipore Corp.) to separate it into the permeate and the retentate. Further, a 50 mM imidazole buffer solution (pH 6.5) was added to the remaining retentate to recover the permeate. This process was repeated four times and the resulting permeate was diluted […] to recover whole free vitamin B12 into the permeate. Further, the pH of the vitamin B12-lactoferrin complex sample in the retentate was adjusted to 2.0, 2 mg of pepsin (a product of Sigma) per 1 ml sample were added, and proteolysis was carried out at 37 C for 60 minutes, after which the pH was further adjusted to 7.5, 2 mg of trypsin (a product of Sigma) per 1 ml sample were added, and proteolysis was carried out at 37 C for 120 minutes. After heating, the supernatant was recovered by centrifugation at 15,000 G. The amount of vitamin B12 was measured by a method using microorganisms (Encyclopedia of Vitamins, the Japanese Association of Vitaminology, Asakura Shoten, p. 501, 1996). Further, a calibration curve was obtained by using cyanocobalmin (a product of Sigma).

[7] = Vitamin B12 reduction after sterilization at 90 C and storage at 35 C for 2 months; assay type: physicochemical; conditions: sterilized 90 C 30 min, stored 35 C 2 months
Protocol: […] The resultant admixture was subjected to dialysis using a dialysis membrane (cut-off molecular weight: 5 kDa) against deionized water and then to freeze-drying to obtain a vitamin B12-lactoferrin complex in which 57 molecules of vitamin B12 were held per one molecule of lactoferrin. […] […] Portions (5 ml) of each sample solution were dispensed into heat-resistant glass bottles and sealed, sterilized at 90 C for 30 minutes and then stored at 35 C for 2 months. The reduction rates of vitamin B12 were measured. The amount of vitamin B12 was measured in the same manner as in Test Example 5.

[8] = Folic acid concentration 0.1 μmol/10 ml in deionized water
[9] = Folic acid concentration 1.0 μmol/10 ml in deionized water
[10] = Folic acid concentration 10 μmol/10 ml in deionized water

**Q.** What does the source list for `Nc1nc2ncc(CNc3ccc(C(=O)N[C@@H](CCC(=O)O)C(=O)O)cc3)nc2c(=O)[nH]1` [Folic acid]?
**A.** Amount of folic acid held per 1 μmol of lactoferrin ([1]; Folic acid added 10 μmol): 9.3 µmol; Amount of folic acid held per 1 μmol of lactoferrin ([1]; Folic acid added 50 μmol): 40 µmol; Amount of folic acid held per 1 μmol of lactoferrin ([1]; Folic acid added 100 μmol): 79 µmol; Amount of folic acid held per 1 μmol of lactoferrin ([1]; Folic acid added 200 μmol): 160 µmol; Amount of folic acid held per 1 μmol of lactoferrin ([1]; Folic acid added 300 μmol): 210 µmol; Maximal amount of folic acid incorporated ([1]; maximally): about 200 molecules per one molecule of lactoferrin; Folic acid ([2]; Radiation time 0 min): 0.16 μmol/10 ml; Folic acid ([2]; Radiation time 0.5 min): 0.13 μmol/10 ml; Folic acid ([2]; Radiation time 7 min): 0.03 μmol/10 ml; Appearance of solution [3, 8]: Slightly turbid; Turbidity at 660 nm [3, 8]: 0.01; Appearance of solution [3, 9]: Insoluble; Turbidity at 660 nm [3, 9]: 0.025; Appearance of solution [3, 10]: Insoluble; Turbidity at 660 nm [3, 10]: 0.034; Solubility of folic acid in deionized water ([3]; deionized water): less than 0.1 μmol/10 ml; Folic acid ([4]; Before heat pasteurization, citric acid buffer pH 2.5): 0.28 μmol/10 ml; Folic acid ([4]; Immediately after heat pasteurization (90 C, 30 min), pH 2.5): 0.18 μmol/10 ml; Folic acid ([4]; Stored for 2 months at 37 C, pH 2.5): 0.05 μmol/10 ml; Folic acid ([4]; Stored for 4 months at 37 C, pH 2.5): 0.01 μmol/10 ml; Folic acid lost ([5]; cow's milk, heat sterilization or during storage): about 60%; Folic acid lost ([5]; powdered milk): 25%

**Q.** What does the source list for Vitamin B12?
**A.** Amount of vitamin B12 held per 1 μmol of lactoferrin ([6]; Vitamin B12 added 10 μmol): 4.2 µmol; Amount of vitamin B12 held per 1 μmol of lactoferrin ([6]; Vitamin B12 added 100 μmol): 41 µmol; Amount of vitamin B12 held per 1 μmol of lactoferrin ([6]; Vitamin B12 added 500 μmol): 130 µmol; Maximal amount of vitamin B12 carried ([6]; maximally): about 100 molecules per one molecule of lactoferrin; Vitamin B12 reduction rate ([7]; pH 3.0): 48%; Vitamin B12 reduction rate ([7]; pH 7.5): 8%
